Experiments:
[1] = target: cathepsin B (Mus musculus, UniProt P10605); assay: Cathepsin B / LAMP1 immunostaining of hippocampal tissue from PADK-treated mice; assay type: in vivo; set-up: from tissue; host or cells: mouse hippocampus (A1); conditions: i.p., 20 mg/kg/day×9 days
Source text: FIG. 1. Lysosomal modulation increases the cathepsin B content of lysosomes and reduces intracellular Δβ1-42 in the APPswe/PS1ΔE9 transgenic mouse model of Alzheimer's disease. […] Without wishing to be bound by any scientific theory, the latter steps may involve processing/trafficking of active intermediate (intCB) and mature forms (matCB) from early/late endosomes to lysosomes in order to promote protein degradation (A). […] The increase in organellar cathepsin B enzyme (red) in PADK-treated APPswe/PS1ΔE9 transgenic mice (tg) was associated with a decrease in intracellular Δβ1-42 in the CA1 pyramidal neurons (C). Arrows denote co-localization in lysosomes, capturing intact Δβ1-42 before being degraded by cathepsin B. View-field widths: 12 μm. wt, vehicle-treated wild-type mice.
The lysosomal modulator Z-Phe-Ala-diazomethylketone (PADK) is administered to APPswe/PS1ΔE9 transgenic mice. Low-level PADK enhances cathepsin trafficking and maturation, thereby improving the clearance capacity of lysosomes (FIG. 1). It attenuates both PHF-tau and synaptic decline in the hippocampal slice model of protein accumulation (Bendiske and Bahr, 2003; Butler et al., 2005; Bahr, 2009). […] In PADK-treated transgenic mice, the increase in organellar cathepsin B was associated with a decrease in intracellular Aβ1-42 in pyramidal neurons (FIG. 1C).

[2] = target: T1, 30-kDa active form of cathepsin B (Rattus norvegicus, UniProt P00787); assay: Active cathepsin B immunoblot in brain, eye and skin after oral dosing in rats; assay type: in vivo
T1 construct: assessed by immunoblot to label the 30-kDa active form of cathepsin B; from tissue; host or cells: Fischer rat brain regions (A5); rat brain regions, eye and skin after oral dosing (A18); rat organotypic heart slice cultures (A17)
T1 sequence (P00787 80-333 limits assumed): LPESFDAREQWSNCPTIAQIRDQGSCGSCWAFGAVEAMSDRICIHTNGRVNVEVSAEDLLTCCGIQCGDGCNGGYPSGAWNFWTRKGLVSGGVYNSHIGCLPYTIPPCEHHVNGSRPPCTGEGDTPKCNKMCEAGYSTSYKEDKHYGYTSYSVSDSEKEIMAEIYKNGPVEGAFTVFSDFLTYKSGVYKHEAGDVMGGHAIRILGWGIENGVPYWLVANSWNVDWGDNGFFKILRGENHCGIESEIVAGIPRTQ
Procedure: FIG. 10. The modulatory compound PADK up-regulates active cathepsin B in brain, eyes, and skin after oral dosing in rats. […] Four different brain regions were dissected and homogenates prepared, and equal protein aliquots were assessed by immunoblot to label the 30-kDa active form of cathepsin B (FC=frontal cortex).

[3] = target: T2, active cathepsin B (Homo sapiens, UniProt P07858); assay: Active cathepsin B staining in human neuronal cultures; assay type: cell-based; conditions: 10 μM for 3 days, vs control compound Z-FA
T2 construct: endogenous in cells

[4] = system: mutant colonies; assay: Ames test of genetic toxicity; assay type: cell-based; conditions: in contrast to a mutagen tested in parallel
[5] = system: GluR1, GluR4, synaptophysin, and synapsin II; assay: Synaptic marker immunoblot in hippocampal homogenates of A53T mice; assay type: in vivo, mouse; conditions: A53T mice injected daily for 11 days
Procedure: FIG. 7. The cathepsin B modulator PADK promotes synaptic integrity in the model of early α-synucleinopathy. The A53T transgenic and wildtype (wt) mice were injected daily with PADK or vehicle for 11 days. […] Mean GluR1 immunoreactivities±SEM are shown (B); post hoc test compared to vehicle-treated transgenics: *p<0.05.
Lysosomal enhancement also promoted protein clearance and synaptic protection in the Parkinson's disease transgenic mouse model expressing mutant A53T human α-synuclein (FIG. 4E). As in the other proteinopathy models, the reduction in human α-synuclein corresponded with active CatB levels that were increased 3-6 fold in brains of the PADK-treated A53T mice. […] The A53T mice were used at 7-8 months of age and behavioral studies confirmed the early α-synucleinopathy was pre-symptomatic, although a subtle change in anxiety behavior was detected (FIG. 5). PADK-mediated cathepsin B modulation was evident throughout the CNS, and the enhanced levels of the enzyme's active form corresponded with improved clearance of α-synuclein (FIG. 6) and recovery of several synaptic markers (FIG. 7A).

[6] = system: APP-αCTF and APP-βCTF; assay: Clearance of APP carboxyterminal fragments in APP mouse model; assay type: in vivo; conditions: PADK-treated transgenic mice, 20-22 months; correlated with augmented active CatB
Procedure: FIG. 4. Enhancing lysosome efficiency with the cathepsin B modulator PADK leads to reductions of multiple types of proteinopathy-related accumulation events. […] Age-matched wild-type mice (wt) and 9-10-month mutant human APP mice, a model of early dementia, treated with or without PADK were assessed for the 4-kDa Δβ peptide, the active form of cathepsin B (act CB), and other proteins in hippocampal samples (C). Similar treatment groups used another APP mouse model at 20-22 months of age to measure clearance of APP carboxyterminal fragments APP-αCTF and APP-βCTF (D). Rat hippocampal slice cultures from the untreated control group (con) and slices treated with submicromolar Δβ42 (early tauopathy model) in the absence or presence of PADK (5 μM for 4 days) were assessed for phosphorylated tau (pTau) and other proteins (E). For a model of early α-synucleinopathy, human A53T α-synuclein transgenic mice, at 7 months old, were studied with or without PADK treatment and assessed for human α-synuclein (α-syn) in TX-100 extracts of hippocampus and for other proteins in hippocampal homogenates (F). Plotted data (±SEM) were compared to neighboring vehicle groups by unpaired t-tests: *p=0.02, **p<0.01, ***p<0.001. APPswind and APP-PS1 mice are described in Butler et al., (2011), the entire content of which is hereby incorporated herein by reference. […]

[7] = oral, peanut butter mixture, 15 mg/kg twice a day, 10 days

Sequence of cathepsin B (P10605 80-333): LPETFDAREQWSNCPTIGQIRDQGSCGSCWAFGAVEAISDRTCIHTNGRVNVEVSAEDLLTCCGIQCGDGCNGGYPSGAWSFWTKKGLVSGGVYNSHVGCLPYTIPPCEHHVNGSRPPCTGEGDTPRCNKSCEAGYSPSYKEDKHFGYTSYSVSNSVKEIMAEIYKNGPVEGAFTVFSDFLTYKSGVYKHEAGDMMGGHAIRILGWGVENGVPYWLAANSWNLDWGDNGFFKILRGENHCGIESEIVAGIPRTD

C[C@H](NC(=O)[C@H](Cc1ccccc1)NC(=O)OCc1ccccc1)C(=O)C=[N+]=[N-] [PADK, N-carbobenzyloxy-L-phenylalanyl-L-alanyl-diazomethylketone]
levels of cathepsin B in hippocampal neurons, co-localized with LAMP1-positive lysosomes [1]: enhanced levels of cathepsin B
BBB crossing after oral dosing ([2]; inferred from enhanced active cathepsin B in brain regions after 10 days of 15 mg PADK/kg/0.5 day): crossing the BBB
active cathepsin B in brain [2, 7]: up-regulate
active cathepsin B in eye tissue [2, 7]: significant increases
active cathepsin B in skin tissue [2, 7]: significant increases
levels of active cathepsin B [3]: increased levels of active cathepsin B
mutant colonies in the Ames test [4]: did not produce mutant colonies
levels of synaptic markers GluR1, GluR4, synaptophysin, and synapsin II [5]: improved levels
APP carboxy-terminal fragments (αCTF and βCTF) [6]: reductions

— patent publication US20160136229A1, “MATERIALS FOR POSITIVE CATHEPSIN B MODULATION AND METHODS OF USE FOR TREATING MILD COGNITIVE IMPAIRMENT (MCI), EARLY DEMENTIA, A-SYNUCLEINOPATHY, TRAUMATIC BRAIN INJURY, CARDIOMYOPATHY, EYE DISEASE AND SKIN DAMAGE” (University of North Carolina at Pembroke, priority 2013, published 2016)
